ChEMBL document CHEMBL5444388, “Affinity Phenotypic Cellular Literature for EUbOPEN Chemogenomic Library” (2024)
Values belong to the compound of their own block, whether it stands above or below them. Where a SMILES comes first, the peptide text is derived from it. [ ]: non-standard residue; d: D form. Arg(Me) = CNC(=N)NCCC[C@H](N)C(=O)O; d3Pal = N[C@H](Cc1cccnc1)C(=O)O; azaGly = NNC(=O)O

Columns and labels:
[1] = biological target: T1, Cyclin-dependent kinase 8 (Homo sapiens, UniProt P49336); test: Affinity Phenotypic Cellular interaction: (Reporter-based luciferase assay (in LS174T cell line (xcexb2-catenin mutant) bearing activating WNT-pathway mutations)) EUB0001623a CDK8; assay type: functional; set-up: mode of action Inhibitor, recommended concentration 100 nM
T1 sequence (P49336 whole entry, looked up, change not shown): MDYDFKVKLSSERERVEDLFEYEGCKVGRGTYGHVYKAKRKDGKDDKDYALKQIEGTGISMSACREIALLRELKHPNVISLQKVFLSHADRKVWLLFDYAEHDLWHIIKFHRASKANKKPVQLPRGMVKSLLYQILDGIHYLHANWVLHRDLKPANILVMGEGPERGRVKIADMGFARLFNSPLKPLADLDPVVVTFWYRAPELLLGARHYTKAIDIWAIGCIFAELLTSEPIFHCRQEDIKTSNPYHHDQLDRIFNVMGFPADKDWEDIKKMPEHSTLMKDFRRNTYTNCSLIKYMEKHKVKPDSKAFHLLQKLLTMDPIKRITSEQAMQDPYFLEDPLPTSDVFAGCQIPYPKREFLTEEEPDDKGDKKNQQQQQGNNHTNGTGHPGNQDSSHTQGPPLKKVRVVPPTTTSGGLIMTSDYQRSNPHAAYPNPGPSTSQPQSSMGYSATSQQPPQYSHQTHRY

[2] = biological target: T1, Cyclin-dependent kinase 8; test: Affinity Phenotypic Cellular interaction: (Reporter-based luciferase assay (in COLO205 (APC mutant) bearing activating WNT-pathway mutations)) EUB0001623a CDK8; assay type: functional, cell-based; set-up: mode of action Inhibitor, recommended concentration 100 nM; settings: colo 205
[3] = biological target: T1, Cyclin-dependent kinase 8; test: Affinity Phenotypic Cellular interaction: (Reporter-based luciferase assay (in PA-1 cell line bearing activating WNT-pathway mutations)) EUB0001623a CDK8; assay type: functional; set-up: mode of action Inhibitor, recommended concentration 100 nM
[4] = biological target: Interleukin-1 receptor-associated kinase 4 (Homo sapiens, UniProt Q9NWZ3); test: Affinity Phenotypic Cellular interaction: (R848-induced IL-6 production in human whole blood) EUB0001558a IRAK4; assay type: functional, tissue-based; set-up: mode of action Inhibitor, recommended concentration 1 uM
[5] = biological target: Cyclin-dependent kinase 13 (Homo sapiens, UniProt Q14004); test: Affinity Phenotypic Cellular interaction: (In-Cell western blot (using MDA-MB-231 cells)) EUB0001632a CDK13; assay type: functional, cell-based; set-up: mode of action Inhibitor, recommended concentration 1 uM
[6] = biological target: Activin receptor type-1 (Homo sapiens, UniProt Q04771); test: Affinity Phenotypic Cellular interaction: (Western Blot (inhibition of ALK2 catalysed phosphorylation of SMAD1/5/8, BMP branch signalling)) EUB0001184b ACVRL1; assay type: functional; set-up: mode of action Inhibitor, recommended concentration 1 uM
[7] = biological target: KiSS-1 receptor (Homo sapiens, UniProt Q969F8); test: Affinity Phenotypic Cellular interaction: (Agonist activity for hGPR54 (C-terminal ethyl amide)) EUB0001072a KISS1R; assay type: functional; set-up: mode of action Negative control for KISS1-305, recommended concentration 1 uM
[8] = biological target: T2, Casein kinase I isoform alpha (Homo sapiens, UniProt P48729); test: Affinity Phenotypic Cellular interaction: (Western Blot assay (inhibition of CSNK1D/E-mediated phosphorylation of DVL3, analyzed by change in phosphorylation-dependent mobility shift)) EUB0001205a CSNK1A1; assay type: functional; set-up: mode of action Inhibitor, recommended concentration 1 uM
T2 sequence (P48729 whole entry, canonical isoform): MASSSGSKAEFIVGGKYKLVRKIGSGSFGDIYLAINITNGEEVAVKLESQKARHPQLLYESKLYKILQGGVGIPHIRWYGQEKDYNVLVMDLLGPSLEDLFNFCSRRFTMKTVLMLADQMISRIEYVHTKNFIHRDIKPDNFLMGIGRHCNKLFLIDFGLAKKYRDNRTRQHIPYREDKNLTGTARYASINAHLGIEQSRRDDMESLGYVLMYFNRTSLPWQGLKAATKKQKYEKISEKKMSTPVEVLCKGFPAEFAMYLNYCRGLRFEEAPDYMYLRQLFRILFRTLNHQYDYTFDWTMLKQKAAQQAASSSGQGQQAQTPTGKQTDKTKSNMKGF

[9] = biological target: T3, Casein kinase I isoform delta (Homo sapiens, UniProt P48730); test: Affinity Phenotypic Cellular interaction: (Western Blot assay (inhibition of CSNK1D/E-mediated phosphorylation of DVL3, analyzed by change in phosphorylation-dependent mobility shift)) EUB0001205a CSNK1D; assay type: functional; set-up: mode of action Inhibitor, recommended concentration 1 uM
T3 sequence (P48730 whole entry, canonical isoform): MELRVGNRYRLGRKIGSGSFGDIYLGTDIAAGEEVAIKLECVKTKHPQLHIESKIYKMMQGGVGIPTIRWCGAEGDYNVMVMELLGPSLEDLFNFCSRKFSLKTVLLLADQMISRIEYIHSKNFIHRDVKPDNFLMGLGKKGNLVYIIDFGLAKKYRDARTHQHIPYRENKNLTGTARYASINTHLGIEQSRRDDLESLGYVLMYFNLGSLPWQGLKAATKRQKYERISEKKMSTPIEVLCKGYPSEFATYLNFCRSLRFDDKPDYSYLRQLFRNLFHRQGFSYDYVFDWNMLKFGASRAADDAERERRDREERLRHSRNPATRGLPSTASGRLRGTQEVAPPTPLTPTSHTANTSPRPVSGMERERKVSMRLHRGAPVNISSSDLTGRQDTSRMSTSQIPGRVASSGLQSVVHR

[10] = biological target: T4, Casein kinase I isoform epsilon (Homo sapiens, UniProt P49674); test: Affinity Phenotypic Cellular interaction: (Western Blot assay (inhibition of CSNK1D/E-mediated phosphorylation of DVL3, analyzed by change in phosphorylation-dependent mobility shift)) EUB0001205a CSNK1E; assay type: functional; set-up: mode of action Inhibitor, recommended concentration 1 uM
T4 sequence (P49674 whole entry, canonical isoform): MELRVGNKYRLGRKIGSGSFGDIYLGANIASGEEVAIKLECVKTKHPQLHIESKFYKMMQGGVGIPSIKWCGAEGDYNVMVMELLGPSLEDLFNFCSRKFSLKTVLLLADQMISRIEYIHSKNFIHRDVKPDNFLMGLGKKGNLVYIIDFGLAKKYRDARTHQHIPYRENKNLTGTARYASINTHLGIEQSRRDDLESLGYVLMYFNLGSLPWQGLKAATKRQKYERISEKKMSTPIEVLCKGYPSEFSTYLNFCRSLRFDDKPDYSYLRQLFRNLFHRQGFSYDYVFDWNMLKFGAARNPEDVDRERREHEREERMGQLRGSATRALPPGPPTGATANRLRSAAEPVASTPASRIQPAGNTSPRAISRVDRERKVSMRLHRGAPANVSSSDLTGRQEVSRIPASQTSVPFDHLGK

[11] = biological target: T2, Casein kinase I isoform alpha; assay type: functional, cell-based, T-REx-293
[12] = biological target: T2, Casein kinase I isoform alpha; assay type: functional
[13] = biological target: T3, Casein kinase I isoform delta; assay type: functional
[14] = biological target: T4, Casein kinase I isoform epsilon; assay type: functional
[15] = biological target: T5, Leucine-rich repeat serine/threonine-protein kinase 2 (Homo sapiens, UniProt Q5S007, G2019S); assay type: functional, subcellular, Brain, lysate
T5 sequence (Q5S007 whole entry G2019S): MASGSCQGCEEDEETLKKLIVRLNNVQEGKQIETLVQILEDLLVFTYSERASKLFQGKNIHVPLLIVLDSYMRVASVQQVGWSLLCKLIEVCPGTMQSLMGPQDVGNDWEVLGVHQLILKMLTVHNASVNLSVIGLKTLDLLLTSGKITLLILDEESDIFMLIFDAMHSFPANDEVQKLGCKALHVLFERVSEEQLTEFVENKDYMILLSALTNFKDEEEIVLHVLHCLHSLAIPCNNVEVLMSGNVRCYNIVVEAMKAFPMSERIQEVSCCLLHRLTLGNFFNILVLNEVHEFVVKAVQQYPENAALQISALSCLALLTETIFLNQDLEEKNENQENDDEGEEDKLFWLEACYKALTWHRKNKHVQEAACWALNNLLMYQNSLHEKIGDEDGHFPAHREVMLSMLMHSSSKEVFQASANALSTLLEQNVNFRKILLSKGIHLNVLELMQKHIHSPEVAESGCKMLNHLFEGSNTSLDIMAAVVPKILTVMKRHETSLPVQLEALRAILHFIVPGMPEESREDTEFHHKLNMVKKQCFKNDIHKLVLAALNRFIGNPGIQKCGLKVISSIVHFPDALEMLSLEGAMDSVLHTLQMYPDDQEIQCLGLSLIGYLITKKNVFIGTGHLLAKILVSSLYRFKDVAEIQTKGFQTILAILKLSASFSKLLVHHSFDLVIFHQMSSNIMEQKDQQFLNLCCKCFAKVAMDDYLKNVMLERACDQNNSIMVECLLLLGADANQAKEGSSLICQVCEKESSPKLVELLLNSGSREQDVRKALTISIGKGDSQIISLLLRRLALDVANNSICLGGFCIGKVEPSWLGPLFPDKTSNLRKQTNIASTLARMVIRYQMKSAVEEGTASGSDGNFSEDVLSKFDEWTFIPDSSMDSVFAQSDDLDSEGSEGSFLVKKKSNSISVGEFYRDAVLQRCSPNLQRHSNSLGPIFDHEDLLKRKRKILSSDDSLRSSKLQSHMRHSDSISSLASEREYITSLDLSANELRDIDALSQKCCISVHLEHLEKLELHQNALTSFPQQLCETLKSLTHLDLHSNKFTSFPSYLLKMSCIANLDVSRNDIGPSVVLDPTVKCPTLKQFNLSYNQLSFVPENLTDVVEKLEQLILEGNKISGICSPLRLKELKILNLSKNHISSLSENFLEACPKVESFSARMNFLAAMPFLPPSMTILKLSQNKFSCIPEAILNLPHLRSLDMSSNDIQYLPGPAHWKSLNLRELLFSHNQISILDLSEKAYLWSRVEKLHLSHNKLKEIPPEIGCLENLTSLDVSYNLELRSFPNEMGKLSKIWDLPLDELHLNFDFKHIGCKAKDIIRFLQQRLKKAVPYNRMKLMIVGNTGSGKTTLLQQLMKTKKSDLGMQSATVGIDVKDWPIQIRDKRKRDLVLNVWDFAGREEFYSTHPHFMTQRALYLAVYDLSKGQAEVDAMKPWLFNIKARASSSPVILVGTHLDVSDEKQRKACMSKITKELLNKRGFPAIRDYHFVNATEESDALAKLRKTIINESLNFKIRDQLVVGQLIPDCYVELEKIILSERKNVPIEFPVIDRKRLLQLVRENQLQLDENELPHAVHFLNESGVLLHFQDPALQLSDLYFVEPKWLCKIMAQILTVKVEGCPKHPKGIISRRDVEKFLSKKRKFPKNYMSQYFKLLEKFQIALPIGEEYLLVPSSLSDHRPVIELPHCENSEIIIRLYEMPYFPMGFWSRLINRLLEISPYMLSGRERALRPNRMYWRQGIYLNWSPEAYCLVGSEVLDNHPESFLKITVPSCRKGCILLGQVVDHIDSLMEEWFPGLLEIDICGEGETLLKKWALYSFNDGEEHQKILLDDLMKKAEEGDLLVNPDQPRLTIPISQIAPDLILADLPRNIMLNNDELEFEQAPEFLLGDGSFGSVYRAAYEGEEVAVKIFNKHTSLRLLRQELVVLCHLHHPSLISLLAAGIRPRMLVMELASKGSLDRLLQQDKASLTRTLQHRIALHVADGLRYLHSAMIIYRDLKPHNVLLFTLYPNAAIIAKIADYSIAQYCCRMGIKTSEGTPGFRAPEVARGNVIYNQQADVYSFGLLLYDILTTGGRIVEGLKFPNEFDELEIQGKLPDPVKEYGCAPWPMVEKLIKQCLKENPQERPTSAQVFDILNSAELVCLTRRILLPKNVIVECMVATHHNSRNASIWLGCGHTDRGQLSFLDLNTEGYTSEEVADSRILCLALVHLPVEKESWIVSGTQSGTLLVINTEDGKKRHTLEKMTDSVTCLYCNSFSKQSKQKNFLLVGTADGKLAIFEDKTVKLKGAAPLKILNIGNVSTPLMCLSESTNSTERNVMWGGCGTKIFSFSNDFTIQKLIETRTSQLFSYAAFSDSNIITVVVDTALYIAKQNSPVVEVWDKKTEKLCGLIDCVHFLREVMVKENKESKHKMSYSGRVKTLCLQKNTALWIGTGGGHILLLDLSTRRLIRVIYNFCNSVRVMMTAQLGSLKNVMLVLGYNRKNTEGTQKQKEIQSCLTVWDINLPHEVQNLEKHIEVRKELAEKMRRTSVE

[16] = biological target: T5, Leucine-rich repeat serine/threonine-protein kinase 2; assay type: functional, subcellular, Brain, lysate; remark: listed apart in the source
[17] = biological target: Mitotic checkpoint serine/threonine-protein kinase BUB1 (Homo sapiens, UniProt O43683); assay type: functional, cell-based, HeLa
[18] = biological target: Inhibitor of nuclear factor kappa-B kinase subunit beta (Homo sapiens, UniProt O14920); test: Affinity Phenotypic Cellular interaction: (Inhibition of expression of ICAM-1 in HeLa cells) EUB0001492b IKBKB; assay type: functional, cell-based; set-up: mode of action Inhibitor, recommended concentration 1 uM
[19] = biological target: T6, RAF proto-oncogene serine/threonine-protein kinase (Homo sapiens, UniProt P04049); test: Affinity Phenotypic Cellular interaction: (Western blot assay (phosphorylation of ERK in HFF cells expressing BRAF/RAS wt)) EUB0000655a RAF1; assay type: functional, cell-based; set-up: mode of action Inhibitor, recommended concentration 1 uM
T6 sequence (P04049 whole entry): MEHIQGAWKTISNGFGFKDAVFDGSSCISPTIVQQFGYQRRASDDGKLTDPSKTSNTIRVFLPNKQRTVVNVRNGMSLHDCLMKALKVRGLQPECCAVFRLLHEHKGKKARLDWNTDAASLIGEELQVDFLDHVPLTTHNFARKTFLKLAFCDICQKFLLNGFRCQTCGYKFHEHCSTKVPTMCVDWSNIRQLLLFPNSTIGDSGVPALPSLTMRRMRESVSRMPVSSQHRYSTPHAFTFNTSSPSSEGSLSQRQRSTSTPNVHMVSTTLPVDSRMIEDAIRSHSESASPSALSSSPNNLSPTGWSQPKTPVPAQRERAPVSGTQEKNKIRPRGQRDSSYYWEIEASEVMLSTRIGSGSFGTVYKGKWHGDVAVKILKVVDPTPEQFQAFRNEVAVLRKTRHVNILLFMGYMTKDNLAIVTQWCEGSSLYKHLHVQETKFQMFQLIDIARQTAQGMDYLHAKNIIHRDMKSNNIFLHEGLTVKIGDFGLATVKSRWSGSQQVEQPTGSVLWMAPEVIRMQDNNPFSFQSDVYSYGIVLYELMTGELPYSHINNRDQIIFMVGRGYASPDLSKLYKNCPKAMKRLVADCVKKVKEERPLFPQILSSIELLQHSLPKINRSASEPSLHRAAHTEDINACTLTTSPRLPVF

[20] = biological target: T6, RAF proto-oncogene serine/threonine-protein kinase; test: Affinity Phenotypic Cellular interaction: (Western blot assay (phosphorylation of ERK in HMEC cells expressing BRAF/RAS wt)) EUB0000655a RAF1; assay type: functional, cell-based; set-up: mode of action Inhibitor, recommended concentration 1 uM
[21] = biological target: T6, RAF proto-oncogene serine/threonine-protein kinase; test: Affinity Phenotypic Cellular interaction: (Western blot assay (phosphorylation of ERK in PREC cells expressing BRAF/RAS wt)) EUB0000655a RAF1; assay type: functional, cell-based; set-up: mode of action Inhibitor, recommended concentration 1 uM
[22] = biological target: T6, RAF proto-oncogene serine/threonine-protein kinase; test: Affinity Phenotypic Cellular interaction: (Western blot assay (phosphorylation of ERK in HCT-116 cells expressing BRAF wt/K-Ras2(G13D))) EUB0000655a RAF1; assay type: functional, cell-based; set-up: mode of action Inhibitor, recommended concentration 1 uM
[23] = biological target: T6, RAF proto-oncogene serine/threonine-protein kinase; test: Affinity Phenotypic Cellular interaction: (Western blot assay (phosphorylation of ERK in HT-1080 cells expressing BRAF wt/N-Ras2(Q61K))) EUB0000655a RAF1; assay type: functional, cell-based; set-up: mode of action Inhibitor, recommended concentration 1 uM
[24] = biological target: T6, RAF proto-oncogene serine/threonine-protein kinase; test: Affinity Phenotypic Cellular interaction: (Western blot assay (phosphorylation of ERK in SKMEL2 cells expressing BRAF wt/N-Ras2(Q61R))) EUB0000655a RAF1; assay type: functional, cell-based, SK-MEL-2; set-up: mode of action Inhibitor, recommended concentration 1 uM
[25] = biological target: T6, RAF proto-oncogene serine/threonine-protein kinase; test: Affinity Phenotypic Cellular interaction: (Western blot assay (phosphorylation of ERK in A375P cells expressing BRAF V600E/RAS wt)) EUB0000655a RAF1; assay type: functional, cell-based; set-up: mode of action Inhibitor, recommended concentration 1 uM
[26] = biological target: T6, RAF proto-oncogene serine/threonine-protein kinase; test: Affinity Phenotypic Cellular interaction: (Western blot assay (phosphorylation of ERK in […] cells expressing BRAF V600E/RAS wt)) EUB0000655a RAF1; assay type: functional, cell-based, COLO 205; set-up: mode of action Inhibitor, recommended concentration 1 uM
[27] = biological target: T6, RAF proto-oncogene serine/threonine-protein kinase; test: Affinity Phenotypic Cellular interaction: (Western blot assay (phosphorylation of ERK in HT-29 cells expressing BRAF V600E/RAS wt)) EUB0000655a RAF1; assay type: functional, cell-based; set-up: mode of action Inhibitor, recommended concentration 1 uM
[28] = biological target: T6, RAF proto-oncogene serine/threonine-protein kinase; test: Affinity Phenotypic Cellular interaction: (Western blot assay (phosphorylation of ERK in MALME-3M cells expressing BRAF V600E/RAS wt)) EUB0000655a RAF1; assay type: functional, cell-based; set-up: mode of action Inhibitor, recommended concentration 1 uM

SMILES: Cc1n[nH]c2ncc(C(=O)N3CCC[C@H]3c3ccc(Cl)cc3)cc12
IC50 [1]: 32000 nM
IC50 [2]: 9 nM
IC50 [3]: 52 nM

SMILES: CC(C)(O)[C@H](F)CN1Cc2cc(NC(=O)c3cnn4cccnc34)c(N3CCOCC3)cc2C1=O
IC50 [4]: 190 nM

SMILES: Cn1cc(-n2cnc3c(NCc4nc5cc(Cl)c(Cl)cc5[nH]4)nc(N4CCOCC4)nc32)cn1
EC50 [5]: 105 nM

SMILES: CNC(=N)NCCC[C@H](NC(=O)[C@H](CC(C)C)NC(=O)NNC(=O)[C@H](Cc1ccccc1)NC(=O)[C@H](CO)NC(=O)[C@H](CC(N)=O)NC(=O)[C@@H](Cc1cccnc1)NC(=O)[C@H](N)Cc1ccc(O)cc1)C(=O)NCC(N)=O [KISS1-543] (H-[dY][d3Pal]NSF[azaGly]L[Arg(Me)]G-NH2)
EC50 [7]: > 10000 nM

SMILES: CCC(F)(F)c1cc(N2CCC(S(C)(=O)=O)CC2)nc2sc(C(N)=O)c(N)c12 [BI-605906]
EC50 [18]: 700 nM

Next, values leading:

EC50 [6]: < 100 nM
SMILES: COc1cc(-c2cncc(-c3ccc(N4CCN(C(C)C)CC4)cc3)c2C)cc(F)c1C(N)=O

EC50 [8]: 200 nM
EC50 [9]: 200 nM
EC50 [10]: 200 nM
IC50 [11]: 10500 nM
IC50 [12]: 1600 nM
IC50 [13]: 1600 nM
IC50 [14]: 1600 nM
SMILES: CN1CCC(F)(Cn2cnc(-c3ccc(F)cn3)c2-c2ccnc3[nH]ccc23)CC1

IC50 [15]: 21 nM
IC50 [16]: 103 nM
SMILES: N#Cc1cccc(-c2c[nH]c3ncnc(N4CCOCC4)c23)c1

IC50 [17]: > 10 nM
SMILES: COc1cnccc1Nc1nc(-c2nn(Cc3c(F)cc(OCCO)cc3F)c3ccccc23)ncc1OC

IC50 [19]: 11000 nM
IC50 [20]: 5100 nM
IC50 [21]: 6100 nM
IC50 [22]: 1100 nM
IC50 [23]: > 13000 nM
IC50 [24]: 1500 nM
IC50 [25]: 290 nM
IC50 [26]: 28 nM
IC50 [27]: 58 nM
IC50 [28]: 190 nM
SMILES: CN(C)CCOc1ccc(-c2nc(-c3ccncc3)c(-c3ccc4c(c3)CC/C4=N\O)[nH]2)cc1 [SB590885]
